Publication PMC5691054, “An unexpected protein interaction promotes drug resistance in leukemia” (Nature Communications, 2017)
Entries after “also recorded” stand apart in the source; their conditions may differ. Where no end group is shown, it is not given here. The star is where a group is joined. Biotin = O=C1N[C@H]2[C@H](CS[C@H]2CCCCC(=O)*)N1; FAM = fluorescein

Key:
[1] = biological target: T1, MPP1 and ABCC4 protein interaction (Homo sapiens, UniProt Q00013); experiment: Competition of ABCC4 C-terminal peptides with MPP1–ABCC4 complex (GST-ABCC4-C100 pull-down, immunoblot); format: biochemical
T1 construct: For full-length expression of MPP1, the pTriX vector containing an N-terminal His tag was used to create the His-S-MPP1 fusion protein; made in house; host or cells: E. coli
T1 sequence (Q00013 1-466): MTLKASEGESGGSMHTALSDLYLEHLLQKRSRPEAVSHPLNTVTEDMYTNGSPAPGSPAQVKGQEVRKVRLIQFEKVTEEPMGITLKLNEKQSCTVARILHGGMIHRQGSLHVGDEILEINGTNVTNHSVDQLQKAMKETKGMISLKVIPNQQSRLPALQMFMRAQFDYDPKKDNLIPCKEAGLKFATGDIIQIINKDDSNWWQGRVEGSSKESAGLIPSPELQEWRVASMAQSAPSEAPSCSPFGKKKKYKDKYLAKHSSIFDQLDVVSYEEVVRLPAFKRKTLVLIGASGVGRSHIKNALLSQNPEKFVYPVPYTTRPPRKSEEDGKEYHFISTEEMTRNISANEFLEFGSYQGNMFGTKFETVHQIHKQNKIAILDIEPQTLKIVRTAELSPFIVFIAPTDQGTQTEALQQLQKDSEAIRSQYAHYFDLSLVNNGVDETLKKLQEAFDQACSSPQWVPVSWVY
Experimental: C-terminal peptides of ABCC4 containing the carboxyl-terminal 15 amino acids ([…]-COOH, ABCC4-PDZ) or carboxyl-terminal 11 amino acids lacking the PDZ-binding motif ([…]-COOH, ABCC4ΔC) conjugated to the cell penetrating peptide TAT ([…]) were chemically synthesized by the Hartwell Center for Bionformatics and Biotechnology at SJCRH. ABCC4 peptides (1–4 μM) were mixed with purified GST-ABCC4-C100 (50 nM) (Supplementary Fig. 10 ) before addition of His-S-MPP1 (3.6 nM) and allowed to mix for 2 h at 24 °C. The GST-ABCC4-C100 was immobilized on glutathione beads, and washed 3 times. Protein complexes were eluted from the beads, separated by SDS-PAGE, and immunoblotted with rabbit anti-MPP1.

[2] = system: ABCC4 plasma membrane localization in HEK293 cells expressing MPP1 and GFP-ABCC4; experiment: ABCC4 plasma membrane localization (confocal microscopy); format: cell-based, Human
Experimental: Peptides containing or lacking the ABCC4-PDZ motif were fused with the cell penetrating HIV-TAT peptide. These peptides were tested for their effect on ABCC4 plasma membrane localization. HEK293 cells were transfected with MPP1 and GFP-ABCC4 and the ER protein, calreticulin. The plasma membrane was counter-stained with wheat-germ-agglutinin (WGA) labeled with Alexa647 after treatment with either ABCC4-PDZ or ABCC4ΔC peptide.
HEK293 cells were seeded on chambered coverglass slides (LAB-TEK) 48 h before transfection with plasmid DNA (250 ng) encoding pAc-GFP-ABCC4 or ABCC4ΔC and pCal plasmid encoding the ER resident protein calreticulin conjugated to RFP (Origene). Transfection was performed using Lipofectamine 2000 as per the manufacturer’s instructions. Immediately prior to visualizing cells, cells were counterstained with the plasma membrane marker wheat-germ agglutinin (WGA) conjugated to Alexa-647 (Invitrogen). All confocal microscopy images were acquired on a 3i Marianas system configured with an Yokagowa CSU-X spinning disk confocal microscope utilizing a ×63 Zeiss objective, using the 488 (GFP), 561 (RFP), and 660 (far red) laser lines.

HEK293 cells = experiment: 6MP cytotoxicity / drug resistance in transfected HEK293 cells; format: cell-based, Human; conditions: HEK293 co-expressing ABCC4 and MPP1; cell penetrating peptide (20 μM in methods; various amounts), 96 h, in words
Experimental: HEK293 cells transfected with ABCC4 or ABCC4ΔC in the presence or absence of MPP1, MO7e, and Meg01 cells were treated with 10 concentrations of 6MP, ranging from 1 to 1000 µM, for 96 h. Cell viability analysis was determined using CellTiter Glo (Promega). Where applicable, cell penetrating peptides conjugated to the PDZ-binding motif of ABCC4 (labeled either ABCC4-PDZ or ABCC4ΔC) were added to the cells at 20 μM. Media was changed daily and new ABCC4-PDZ/ABCC4ΔC peptide and 6MP was added. IC50 values were calculated using GraphPad Prism.

MO7e cells [3] = experiment: Cytarabine cytotoxicity in MO7e cells; format: cell-based, Human; conditions: in words
Experimental: MO7e cells were seeded at 1500 cells per well of a 96-well plate. Cells were then treated with Cytarabine at increasing concentrations ranging from 0.5 to 500 μM for 4 h in serum-free media. Cells were washed three times with PBS and replaced with fresh complete media for 68 h. Cell viability analysis was determined using CellTiter Glo. Where applicable, cells were treated with 10 nM Antimycin A. IC50 values were calculated using GraphPad Prism.

[4] = system: murine hematopoietic progenitor cells (HPC)
MO7e cells [5] = experiment: 6MP cytotoxicity in MO7e cells and CRISPR knock-outs; format: cell-based, Human
[6] = system: murine hematopoietic progenitor cells (HPC); experiment: Hematopoietic progenitor cell serial replating in methylcellulose; conditions: HPC transduced with MPP1; cell penetrating peptide, fresh at each replating; n = 3
[7] = biological target: T2, MPP1, endogenous in MO7e cells (human (endogenous in MO7e), UniProt Q00013 1-466); experiment: cell-based or functional assay
T2 sequence (looked up): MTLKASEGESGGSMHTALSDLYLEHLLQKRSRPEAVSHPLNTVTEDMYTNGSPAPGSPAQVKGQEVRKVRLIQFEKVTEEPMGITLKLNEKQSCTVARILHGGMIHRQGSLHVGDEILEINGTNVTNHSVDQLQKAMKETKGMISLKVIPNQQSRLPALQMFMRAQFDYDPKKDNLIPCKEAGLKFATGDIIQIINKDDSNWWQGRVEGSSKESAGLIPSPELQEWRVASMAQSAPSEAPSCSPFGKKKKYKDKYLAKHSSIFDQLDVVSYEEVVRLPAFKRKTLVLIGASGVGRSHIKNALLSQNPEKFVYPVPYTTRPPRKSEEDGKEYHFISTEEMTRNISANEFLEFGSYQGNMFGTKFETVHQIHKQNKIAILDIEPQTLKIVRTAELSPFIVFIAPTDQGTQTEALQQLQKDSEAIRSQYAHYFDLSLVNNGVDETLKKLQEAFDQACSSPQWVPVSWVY

[8] = biological target: T3, His-S-MPP1 fusion protein (full-length MPP1) (UniProt Q00013 1-466); experiment: FRET or BRET; TR-FRET: various concentrations of B-ABCC4 with 5 nM Tb-anti-His, 50 nM AF488-streptavidin and 5 nM His-S-MPP1 in DPBS, 0.01% BSA, 1 mM DTT, 0.5% DMSO; one site total binding fit; conditions: both partners purified
T3 construct: MPP1 (p55), full length, expressed from the pTriX vector; the fragments of the same protein are numbered up to amino acid 466; also called purified MPP1; source: E. coli, purified (nickel column); not shown: His tag, N-terminal, kept
T3 sequence (looked up): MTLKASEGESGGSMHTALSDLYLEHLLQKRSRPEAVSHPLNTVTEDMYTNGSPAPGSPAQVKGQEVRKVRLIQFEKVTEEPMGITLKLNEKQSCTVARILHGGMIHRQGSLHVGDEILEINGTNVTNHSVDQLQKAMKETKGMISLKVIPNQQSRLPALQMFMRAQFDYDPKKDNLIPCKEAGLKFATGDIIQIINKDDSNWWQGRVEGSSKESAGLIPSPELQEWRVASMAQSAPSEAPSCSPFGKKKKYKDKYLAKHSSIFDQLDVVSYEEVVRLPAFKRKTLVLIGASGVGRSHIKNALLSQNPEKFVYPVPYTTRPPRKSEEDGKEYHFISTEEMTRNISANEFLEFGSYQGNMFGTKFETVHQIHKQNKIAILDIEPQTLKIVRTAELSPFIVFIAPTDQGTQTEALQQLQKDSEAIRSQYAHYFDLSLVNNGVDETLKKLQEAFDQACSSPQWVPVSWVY

[9] = biological target: T3, His-S-MPP1 fusion protein (full-length …); experiment: pull-down; competition: TAT-ABCC4 peptides (1–4 μM) mixed with GST-ABCC4-C100 (50 nM) before addition of His-S-MPP1 (3.6 nM), 2 h at 24 °C; GST-ABCC4-C100 immobilized on glutathione beads, washed 3 times; immunoblot with rabbit anti-MPP1; conditions: both partners purified
[10] = biological target: T3, His-S-MPP1 fusion protein (full-length …); experiment: fluorescence polarisation; 100 nM FAM-ABCC4 incubated with various concentrations of full-length MPP1; estimated constant; conditions: both partners purified

In the case of “SNGQPSTLTIFETAL-OH [ABCC4-PDZ, carboxyl-terminal 15 amino acids of ABCC4 conjugated to the cell penetrating peptide TAT]”, the “disruption of the MPP1 and ABCC4 protein interaction” value ([1]; in words, in vitro competition experiment) is reported as “potently disrupted complex formation”, the “greater affinity of MPP1 for ABCC4 vs. glycophorin c” value ([1]; suggested by the IC50 of ~300 nM) is reported as 15 fold and the “transfected cells exhibiting loss of ABCC4 at the plasma membrane” value ([2]; cell penetrating peptide (TAT fused; 10 μM in Supplementary Fig. 4), n = 20 fields of view) is reported as “over 90%”. For the same molecule, the “effect on ABCC4 plasma membrane localization” value ([2]; in words, confocal microscopy) was “reduced the ABCC4 plasma membrane localization”, the “effect of peptide on 6MP IC50” value (HEK293 cells) was “dose-dependently suppressed the IC50 of 6MP with the highest dose almost completely reversing the salutary effect of MPP1” and the “effect of peptide on cytarabine sensitivity” value (MO7e cells [3]; MO7e lacking ABCC4) was “no additional sensitivity to cytarabine”. For the same molecule, the “effect of peptide on cytarabine sensitivity” value (MO7e cells [3]; MO7e, cytarabine 0.5–500 μM 4 h, then 68 h) was “sensitized to cytarabine cytotoxicity; also recorded: specifically sensitized MO7e cells to cytarabine”, the “effect of co-treatment on IC50 for cytarabine” value (MO7e cells [3]; peer review file) was “reduce the IC50 for cytarabine” and the “toxicity to normal hematopoietic progenitors” value [4] was “not toxic to normal”. For the same molecule, the “effect of peptide on 6MP sensitivity” value (MO7e cells [5]; cell permeable peptide (10 μM), in words) was “sensitizes MO7e cells to 6MP”, the “reduction of 6MP IC50 by peptide” value (MO7e cells [5]; cell permeable peptide (10 μM, Supplementary Fig. 5c)) was 2.6 fold and the “effect on MPP1-driven methylcellulose replating” value [6] was “suppressed methylcellulose replating”.

B1: ABCC4, endogenous in MO7e cells (natural protein, human (endogenous in MO7e), UniProt O15439 1-1325, looked up)
chain: MLPVYQEVKPNPLQDANLCSRVFFWWLNPLFKIGHKRRLEEDDMYSVLPEDRSQHLGEELQGFWDKEVLRAENDAQKPSLTRAIIKCYWKSYLVLGIFTLIEESAKVIQPIFLGKIINYFENYDPMDSVALNTAYAYATVLTFCTLILAILHHLYFYHVQCAGMRLRVAMCHMIYRKALRLSNMAMGKTTTGQIVNLLSNDVNKFDQVTVFLHFLWAGPLQAIAVTALLWMEIGISCLAGMAVLIILLPLQSCFGKLFSSLRSKTATFTDARIRTMNEVITGIRIIKMYAWEKSFSNLITNLRKKEISKILRSSCLRGMNLASFFSASKIIVFVTFTTYVLLGSVITASRVFVAVTLYGAVRLTVTLFFPSAIERVSEAIVSIRRIQTFLLLDEISQRNRQLPSDGKKMVHVQDFTAFWDKASETPTLQGLSFTVRPGELLAVVGPVGAGKSSLLSAVLGELAPSHGLVSVHGRIAYVSQQPWVFSGTLRSNILFGKKYEKERYEKVIKACALKKDLQLLEDGDLTVIGDRGTTLSGGQKARVNLARAVYQDADIYLLDDPLSAVDAEVSRHLFELCICQILHEKITILVTHQLQYLKAASQILILKDGKMVQKGTYTEFLKSGIDFGSLLKKDNEESEQPPVPGTPTLRNRTFSESSVWSQQSSRPSLKDGALESQDTENVPVTLSEENRSEGKVGFQAYKNYFRAGAHWIVFIFLILLNTAAQVAYVLQDWWLSYWANKQSMLNVTVNGGGNVTEKLDLNWYLGIYSGLTVATVLFGIARSLLVFYVLVNSSQTLHNKMFESILKAPVLFFDRNPIGRILNRFSKDIGHLDDLLPLTFLDFIQTLLQVVGVVSVAVAVIPWIAIPLVPLGIIFIFLRRYFLETSRDVKRLESTTRSPVFSHLSSSLQGLWTIRAYKAEERCQELFDAHQDLHSEAWFLFLTTSRWFAVRLDAICAMFVIIVAFGSLILAKTLDAGQVGLALSYALTLMGMFQWCVRQSAEVENMMISVERVIEYTDLEKEAPWEYQKRPPPAWPHEGVIIFDNVNFMYSPGGPLVLKHLTALIKSQEKVGIVGRTGAGKSSLISALFRLSEPEGKIWIDKILTTEIGLHDLRKKMSIIPQEPVLFTGTMRKNLDPFNEHTDEELWNALQEVQLKETIEDLPGKMDTELAESGSNFSVGQRQLVCLARAILRKNQILIIDEATANVDPRTDELIQKKIREKFAHCTVLTIAHRLNTIIDSDKIMVLDSGRLKEYDEPYVLLQNKESLFYKMVQQLGKAEAAALTETAKQVYFKRNYPHIGHTDHMVTNTSNGQPSTLTIFETAL
In the case of B1, the “IC50 of 6MP in MO7e cells with the C-terminal ABCC4 peptide” value [7] is reported as 2.6 fold.

B2: Biotinylated C-terminal ABCC4 peptide (biotin-[residues removed]-COOH) (peptide)
peptide: Biotin-GHTDHMVTNTSNGQPSTLTIFETAL-OH
modifications: not fully specified; printed as biotin-GHTDHMVTNTSNGQPSTLTIFETAL-COOH
notes: ABCC4, human, C-terminal 25 amino acids with the PDZ motif ETAL; Detected through Alexa Fluor 488 streptavidin in the TR-FRET assay; also called B-ABCC4; ABCC4-PDZ peptide; source: synthetic peptide
With B2 the Kd [8] was roughly 511 nM.

B3: ABCC4-PDZ peptide (carboxyl-terminal 15 amino acids of ABCC4) conjugated to the cell penetrating peptide TAT (peptide)
peptide: YGRKKRRQRRRSNGQPSTLTIFETAL
notes: cell penetrating HIV-TAT peptide; ABCC4, human, carboxyl-terminal 15 amino acids with the PDZ motif ETAL, free COOH; also called cell penetrating ABCC4-PDZ peptide; source: synthetic peptide
B3 showed an IC50 [9] of roughly 300 nM.

B4: Fluorescein-conjugated C-terminal peptide of ABCC4 (FAM-TIFETAL-COOH) (peptide)
peptide: {FAM}-TIFETAL-OH
notes: ABCC4, human, C-terminal 7 amino acids with the PDZ motif ETAL; also called FAM-ABCC4; fluorescein-labeled ABCC4-PDZ motif peptide; source: synthetic peptide
For B4, the Kd [10] was roughly 600 nM.
